Source: patent US20120225093A1, “Abrogating HIV-1 Infection via Drug-Induced Reactivation of Apoptosis” (UNIVERSITY OF MEDICINE AND DENTISTRY OF NEW JERSEY, priority 2010, published 2012)

Key:
HIV p24 = assay: p24 expression from pNL4-3-LucE- molecular clone in 293T cells; assay type: cell-based, HIV-1; conditions: 293T cell extract; 12 hr post-transfection
Method: FIGS. 3A-D are a set of diagrams and photographs showing drug effects on luciferase expression from an HIV-1 molecular clone. A. Comparison of drug effects on luciferase expression from the pNL4-3-LucE- molecular clone in 293T cells. The molecular clone pNL4-3-LucE- and pCMV-Ren were transfected into 293T cells. Drugs were added where indicated at the following concentrations: P2 (30 μM), CPX (30 μM), DEF (250 μM), or DFOX (15 μM). Dual luciferase assays were conducted at 12 hr post-transfection. Firefly (FF) luciferase expression was normalized to Renilla luciferase (Ren) from pCMV-Ren (mean of 2 experiments in duplicate, ±SD). B. Expression in Jurkat cells was assayed essentially as in panel A. C. Firefly and Renilla luciferase RNA expression was analyzed in 293T cells treated as in panel A by RPA using 32P-[UTP] labeled antisense RNA probes corresponding to the C-termini of the FF and Ren luciferase mRNAs. D. Comparison of drug effects on p24 expression from the pNL4-3-LucE- molecular clone in 293T cells. Drugs were added where indicated to the same concentrations as in A. p24 levels were determined in cell extract at 12 hr post-transfection.
p24 core antigen in the supernatant was quantified by ELISA (Retrotek HIV-1 p24™; ZeptoMetrix Corp.; Buffalo, N.Y.). HIV-1 RNA copy number in the supernatant was determined with a PCR-based and FDA-approved assay (Amplicor HIV-1 Monitor™; Roche Diagnostics Corp.; Indianapolis, Ind.). IFN-γ and IL-10 in the supernatant were determined by cytometric bead array (Human Th1/Th2 Cytokine Kit II™; BD Biosciences Pharmingen, San Jose, Calif.).

[1] = test system: bioavailable intracellular iron; assay: IRE-controlled luciferase reporter in 293T cells; assay type: cell-based, human; conditions: 12 hr
Method: 293T cells (10^5 cells/well of 12-well microplates) were seeded and transfected 20 hr later with a firefly luciferase (Luc)-expressing reporter plasmid and corresponding Renilla luciferase (Ren)-expressing reference plasmid using TransFectin™ (Bio-Rad, Hercules, Calif.). The bioavailable intracellular iron concentration was monitored using plasmids obtained from B. Galy and M. W. Hentze (EMBL, Heidelberg). Plasmid pcFIF-Luc contains the mouse ferritin H 5′-UTR with an iron response element (IRE) controlling Luc; pcFIRo-Ren is a similar construct expressing a mutated non-functional IRE fused to Ren. The activity of the HIV-1 promoter was monitored using the pNL4-3-Luc E molecular clone (Chen et al. (1994) J Virol 68: 654-660.), based on the recombinant infectious proviral clone that contains DNA from HIV isolates NY5 (5′ half) and IIIB (3′ half). This plasmid, obtained from D. Baltimore (Caltech, Pasadena), contains the Luc gene in place of 102 nucleotides from nef and 6 nucleotides from env. pCMV-Ren (Promega, Madison, Wis.) was used as reference for pNL4-3-Luc E. Compounds were added at the time of transfection. Cells were harvested 12 hr later, washed with phosphate-buffered saline, and lysed for the dual luciferase assay (Dual Luciferase™ Reporter Assay System; Promega, Madison, Wis.). Luc data were normalized to the Ren internal controls (Hogue et al. (2009) Retrovirology 6: 90.).
Both CPX and DEF are hydroxypyridinones with vicinally positioned oxygen atoms that mediate bidentate interaction with metal ions, in particular Fe^3+ (FIG. 11A). To evaluate the effect of drugs on the intracellular iron pool and on HIV-1 gene expression, transient expression assays in human 293T cells were exploited. Bioavailable intracellular iron was measured using a construct in which an iron-responsive element (IRE) controls luciferase expression, and HIV-specific transcription was assayed in parallel using an HIV-1 molecular clone that expresses luciferase reporter under the direction of the retroviral promoter. CPX and DEF were compared with the medicinal chelator deferoxamine (DFOX) and with the CPX fragment Agent P2, which consists of the metal-binding 1,2-HOPO domain of CPX but lacks the cyclohexyl moiety (FIG. 11A).

[2] = in vivo, cited from earlier work
eIF5A:DOHH complex = target: T1, eIF5A:DOHH complex (Homo sapiens, UniProt Q9BU89); assay: Co-immunoprecipitation of eIF5A with DOHH from 293T cell extracts; assay type: cell-based; conditions: CPX 30 μM, P2 30 μM, DEF 250 μM, DFOX 10 μM, GC7 10 μM; 24 hr
T1 construct: Endogenous DOHH co-immunoprecipitated with FLAG-eIF5A; expressed in transfected cells; host or cells: 293T cells (DOHH endogenous, FLAG-eIF5A transfected)
T1 sequence (Q9BU89 1-302): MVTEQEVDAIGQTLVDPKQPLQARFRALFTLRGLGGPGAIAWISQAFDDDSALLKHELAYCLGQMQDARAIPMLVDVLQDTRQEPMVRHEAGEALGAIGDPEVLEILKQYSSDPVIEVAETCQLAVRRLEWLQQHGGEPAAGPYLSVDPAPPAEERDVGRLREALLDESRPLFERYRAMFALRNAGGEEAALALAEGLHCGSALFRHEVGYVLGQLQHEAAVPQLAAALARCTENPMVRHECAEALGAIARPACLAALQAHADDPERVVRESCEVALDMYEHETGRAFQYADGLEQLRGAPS
Method: (§1) Immunoprecipitation and immunoblotting experiments were carried out as described previously in Hoque et al. Mol Cell Biol 2003, 23:1688-1702.
(§2) eIF5A forms tight complexes with its modifying enzymes. Unmodified eIF5A (lysine-50) immunoprecipitates with DHS and deoxyhypusyl-eIF5A interacts with DOHH in vitro. It was discovered that the deoxyhypusyl-eIF5A:DOHH complex formed in vivo can be detected by immunoprecipitation from cell extracts. Taking advantage of this finding, the effects of the drugs on the enzyme-substrate interaction were tested. FLAG-eIF5A was expressed in 293T cells and complexes that immunoprecipitated with anti-FLAG antibody were immunoblotted and probed with antibodies against DOHH. […] As a further control, the DHS inhibitor GC7 was included in this assay. […] As expected, none of the compounds affected the immunoprecipitation of FLAG-eIF5A (FIG. 2D, middle panel) or the expression of endogenous eIF5A (FIG. 2D, bottom panel). Reciprocally, the interaction between endogenous eIF5A and tagged DOHH was inhibited by CPX and DEF (FIG. 2E, right). Similarly, the interaction of endogenous eIF5A with tagged DHS was inhibited by GC7 (FIG. 2E, left) but resistant to CPX and DEF. It is concluded that CPX and DEF, but not P2 or DFOX, target DOHH and inhibit its interaction with its substrate, deoxyhypusylelF5A.

eIF5A:DHS complex = target: T2, eIF5A:DHS complex (Homo sapiens, UniProt P49366); assay: Co-immunoprecipitation of eIF5A with DHS from 293T cell extracts; assay type: cell-based; conditions: 293T transfected with FLAG-DHS
T2 construct: expressed in transfected cells; host or cells: 293T cells (FLAG-DHS transfected, eIF5A endogenous)
T2 sequence (P49366 1-369): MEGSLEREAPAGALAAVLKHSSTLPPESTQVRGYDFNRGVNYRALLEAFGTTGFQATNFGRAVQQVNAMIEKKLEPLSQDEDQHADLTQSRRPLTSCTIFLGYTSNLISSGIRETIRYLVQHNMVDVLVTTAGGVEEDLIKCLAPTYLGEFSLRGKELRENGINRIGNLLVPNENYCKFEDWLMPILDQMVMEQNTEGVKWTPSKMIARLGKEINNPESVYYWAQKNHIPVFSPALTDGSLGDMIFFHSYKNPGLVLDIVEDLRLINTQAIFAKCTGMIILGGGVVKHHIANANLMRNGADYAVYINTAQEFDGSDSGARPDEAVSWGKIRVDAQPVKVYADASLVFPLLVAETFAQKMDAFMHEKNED
Method: as §1, §2

| SMILES | inhibition of HIV p24 expression from the molecular clone (HIV p24) | reduction of intracellular iron (IRE-dependent luciferase) [1] [%] | peak concentration achievable in patients ([2]; human) [µM] | maximum achievable in human plasma [2] [µM] | association of endogenous DOHH with FLAG-eIF5A (eIF5A:DOHH complex) | interaction of endogenous eIF5A with tagged DHS (eIF5A:DHS complex) |
| --- | --- | --- | --- | --- | --- | --- |
| CC(=O)N(O)CCCCCNC(=O)CCC(=O)N(O)CCCCCNC(=O)CCC(=O)N(O)CCCCCN [DFOX, deferoxamine] | no effect | 80 | 15 | 20 |  |  |
| NCCCCCCCN=C(N)N [GC7] |  |  |  |  | No DOHH was associated with FLAG-eIF5A | inhibited |
